# What was measured:
# [1] = Stability in the presence of human hepatocytes; type: in vitro ADME; conditions: both sexes, human, cryopreserved hepatocytes, pH 7.4, human hepatocytes, 37° C., average of duplicates, ^a = 0-120 minute time points, read-out: T1/2 Human
# Experimental: (§1) Compounds of the invention were tested for stability in the presence of dog, rat and human hepatocytes over a 4 hour period by LC/MS/MS. The study was performed by Integrated Analytical Solutions, Berkeley, Calif.
# (§2) Reference Standards and Solutions: Compounds of the invention were stored as powders at ambient temperature in a desiccator and protected from light. Reference stock solutions of Compound Nos. 50a, 50b, 79a, 82, 91a and 178d, as 20 mM in DMSO were prepared and subsequently diluted to 2 mM in MeOH to provide working stock solutions (WSS). Unused standard solutions were stored at −20° C.
# (§3) Hepatocyte Preparation: Human (mixed gender), Beagle dog (male) and Sprague Dawley rat (male) cryopreserved hepatocytes were purchased from Life Technologies Corporation. Hepatocytes were removed from liquid nitrogen, quickly thawed in a 37° C. water bath and transferred to Hepatocyte Thawing/Plating Medium (Cryopreserved Hepatocyte Recovery Medium, CHRM, Life Technologies Inc.). The cells were pelleted by slow speed centrifugation (˜100×g, 6 min) and resuspended at a high cell density. Hepatocyte viability was determined by trypan blue exclusion. Hepatocyte incubation medium (Life Technologies, Inc.) was added to generate a cell density of 2.0×10^6 cells/mL.
# (§4) Hepatocyte Incubations for Stability: The 2 mM WSS was diluted 1 in 200 in hepatocyte incubation medium (pH 7.4) to 10 μM. A solution containing control compounds was prepared similarly to contain 10 μM each of dextromethorphan and testosterone. The solutions of test compounds and controls at 10 μM in hepatocyte incubation medium were pre-incubated at 37° C. for 10 min. Aliquots (250 μL) of hepatocyte suspensions (at 2.0×10^6 cells/mL) were transferred to appropriate 48-well plates and pre-incubated at 37° C. for 10 minutes. Metabolism was initiated by adding 250 μL pre-incubated medium (containing test drug) to wells containing cells. A negative control reaction excluding hepatocytes was used to monitor aqueous stability and/or non-specific adsorption. The final reaction mixtures contained 5 μM of test or control compound and 1.0×10^6 cells/mL. All reactions were performed in duplicate and carried at 37° C. in an incubator. Dextromethorphan and testosterone were used as control drugs to verify hepatocyte activity.
# (§5) Aliquots were removed from each metabolism reaction at 0, 0.5, 2 and 4 hours. The reactions were terminated by adding each aliquot to a vessel containing 2× volumes (80 μL) of Internal Standard Solution (acetonitrile containing 50 ng/mL 2-(2,8-dimethyl-3,4-dihydro-1H-pyrido[4,3-b]indol-5(2H)-yl)-1-(pyridin-4-yl)ethanol (ISS1), 50 ng/mL of 2-(2,8-dimethyl-3,4-dihydro-1H-pyrido[4,3-b]indol-5(2H)-yl)-1-(piperidin-1-yl)ethanone (ISS2) and 5 ng/mL diphenhydramine. Terminated reactions were centrifuged at 6000 g for 30 mins at 4° C. to remove the precipitated proteins and cell debris. Following centrifugation, 20 μL of each supernatant was transferred to a deep-well microplate and diluted with 5× volumes (100 μL) of 0.2% formic acid in water. Compound 178d samples were diluted with 5× volumes (100 μL) of 0.1% HFBA in water. Samples were analyzed by LC/MS/MS.
# (§6) Calculation of Metabolism Parameters: Percent remaining was measured by dividing the analyte/IS peak area ratio at the designated sample time by the peak area ratio at time 0. ISS1 served as the IS for Compound No. 178d. ISS2 served as the IS for Compound nos. 50a, 50b, 79a, 82 and 91a. The metabolic half-life (T1/2) was calculated using all time points unless otherwise noted. The T1/2 values were calculated as 0.693/k, where k is the slope of the log analyte/internal standard peak area ratio versus time. Metabolism rate was calculated by dividing the starting concentration of substrate by the concentration of hepatocytes, then dividing by the T1/2 value.
# [2] = Stability in the presence of dog hepatocytes; type: in vitro ADME, Beagle dog; conditions: male, Beagle, dog, cryopreserved hepatocytes, pH 7.4, dog hepatocytes, 37° C., average of duplicates, ^a = 0-120 minute time points, read-out: T1/2 Dog
# Experimental: as §1, §2, §3, §4, §5, §6
# [3] = Stability in the presence of rat hepatocytes; type: in vitro ADME, Sprague Dawley rat; conditions: male, Sprague Dawley, rat, cryopreserved hepatocytes, pH 7.4, rat hepatocytes, 37° C., average of duplicates, ^a = 0-120 minute time points, read-out: T1/2 Rat
# Experimental: as §1, §2, §3, §4, §5, §6
# [4] = target: T1, Human adrenergic α2B receptor (Homo sapiens, UniProt P18089); experiment: Radioligand binding, adrenergic α2B (Protocol Group A); parameters: expressed in transfected cells; host or cells: CHO-K1; conditions: 0.03 μM compound, [3H]Rauwolscine, read-out: percent inhibition of specific binding, Adrenergic α2B
# T1 sequence (P18089 1-450): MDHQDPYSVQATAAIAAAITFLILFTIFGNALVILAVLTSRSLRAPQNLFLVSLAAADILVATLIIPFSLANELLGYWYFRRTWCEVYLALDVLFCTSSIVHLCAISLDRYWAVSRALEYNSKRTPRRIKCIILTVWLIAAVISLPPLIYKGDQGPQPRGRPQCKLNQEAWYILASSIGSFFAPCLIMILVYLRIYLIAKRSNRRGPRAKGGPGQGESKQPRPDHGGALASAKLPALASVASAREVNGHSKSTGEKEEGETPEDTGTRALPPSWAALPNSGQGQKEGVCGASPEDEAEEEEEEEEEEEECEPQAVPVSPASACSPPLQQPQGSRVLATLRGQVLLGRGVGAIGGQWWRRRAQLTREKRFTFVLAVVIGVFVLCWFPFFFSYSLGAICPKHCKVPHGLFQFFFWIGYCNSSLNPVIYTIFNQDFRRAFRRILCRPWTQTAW
# Experimental: To evaluate in radioligand binding assays the activity of compounds of the invention, human recombinant adrenergic α2B receptor expressed in Chinese hamster ovary (CHO) K1 cells (Uhlen, S. et al, Eur. J. Pharmacol. 343(1):93, 1998) in a modified Tris-HCl buffer (50 mM Tris-HCl, pH 7.4, 12.5 mM MgCl2, 1 mM EDTA, 0.2% BSA) was used. Compounds of the invention were incubated with 2.5 nM [3H]Rauwolscine for 60 min at 25° C. Non-specific binding was estimated in the presence of 10 μM Prazosin. Receptor proteins were filtered and washed, the filters were then counted to determine [3H]Rauwolscine specifically bound. Compounds were screened at 1 μM or lower, using 1% DMSO as vehicle. Compounds of the invention were tested in this biochemical assay and percent inhibition of specific binding was determined. Biochemical assay results are presented as the percent inhibition of specific binding in Table B1a.
SMILES,half-life at 5 µM [1] [h],half-life at 5 µM [2] [h],half-life at 5 µM [3] [h],inhibition at 0.03 µM [4] [%]
"Cc1ccc2c(c1)c1c(n2C[C@@H](OC2CCCC2)c2ccncc2)CCN2CCC[C@H]12 [compound 82, (11cR)-7-[(25)-2-(cyclopentoxy)-2-(4-pyridyl)ethyl]-10-methyl-1,2,3,5,6,11c-hexahydroindolizino[7,8-b]indole]",0.817,0.8,0.767,–
"Cc1cc(Cl)c2c(c1)c1c(n2CC(C)(O)c2ccncc2)CCN2CCCC12 (single isomer, unassigned) [91a]",2.3,1.37,2.82,–
"Cc1ccc2c(c1)c1c(n2CC(O)c2ccncc2)CCN2CCCC12 (single isomer, unassigned) [Compound No. 178d]",2.23,4,> 4,–
"Cc1ccc2c(c1)c1c(n2CC(C)(O)c2ccc(F)nc2)CCN2CCCC12 (single isomer, unassigned) [6a]",–,–,–,107
"Cc1cc2c3c(n(CC(C)(O)c4ccncc4)c2cc1Cl)CCN1CCCC31 (single isomer, unassigned) [50a]",1.92,2.03,2.43,–
"Cc1ccc2c(c1)c1c(n2CC(OC(=O)N2CCCC2)c2ccncc2)CCN(C)C1 (single isomer, unassigned) [4b]",–,–,–,86
Cc1cc(F)c2c(c1)c1c(n2CC(C)(O)c2cccnc2)CCN2CCCC12 (centres unmarked) [Compound No. 79a],> 4,3.02,3.5,–
